Where two headings read alike, the source gives them in different places.
How the values were obtained:
Norovirus 3CL^pro [1] = target: T1, Norovirus 3CL^pro (Norovirus GII.4, UniProt P54634); experiment: Cell-based FlipGFP assay of 3CLpro inhibition; design: species or system Norovirus genotype GII.4
T1 sequence (P54634 1009-1189): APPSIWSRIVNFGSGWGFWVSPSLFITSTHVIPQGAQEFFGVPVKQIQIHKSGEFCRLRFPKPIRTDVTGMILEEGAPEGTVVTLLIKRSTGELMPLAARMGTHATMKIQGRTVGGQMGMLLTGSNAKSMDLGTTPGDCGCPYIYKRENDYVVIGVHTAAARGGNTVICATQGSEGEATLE

Norovirus 3CL^pro [2] = experiment: Western blot of FlipGFP cleavage; format: cell-based; details: at higher inhibitor concentrations, compared with C139A control
c-Met = details: quoted in Description column of Table S1; no reference given; cited from earlier work
VEGFR2 = details: quoted in Description column of Table S1; no reference given; cited from earlier work

SMILES	IC50 (Norovirus 3CL^pro [1]) [nM]	also measured
O=c1[nH]c2ccccc2n1C1CCN(Cc2ccc(-c3[nH]c4cc5ncnc5cc4nc3-c3ccccc3)cc2)CC1 [Akt inhibitor VIII]	590 ± 120	
N#Cc1ccc(O[C@H]2CC[C@H](NC(=O)c3ccc(N4CCC(CN5CCN(c6cc7c(cc6F)C(=O)N(C6CCC(=O)NC6=O)C7=O)CC5)CC4)nn3)CC2)cc1Cl (some centres unmarked) [Bavdegalutamide]	970 ± 240	
O=C(Nc1cccc(-c2nc(-c3ccc(NC(=O)c4cccnc4)cc3Cl)no2)c1)Nc1ccc(NC(=O)C2CC2)c(C(F)(F)F)c1 [EGFR-IN-8]	290 ± 90	Proteolytic cleavage of FlipGFP (Western blot) (Norovirus 3CL^pro [2]): proteolytic cleavage was markedly reduced
CC(C)C[C@H](NC(=O)OCc1ccccc1)C(=O)N[C@@H](CC1CCNC1=O)C(O)S(=O)(=O)O (some centres unmarked) [GC376]		IC50 (Norovirus 3CL^pro [1]; HEK293T cells co-transfected with 3CLpro-FlipGFP and 3CLpro, compound added 6 h, fluorescence read 24 h post-transfection, triplicate, read-out: IC50): 2280 ± 170 nM
CCc1cc(Nc2nccc(-c3c(-c4ccc(OC)c(C(=O)Nc5c(F)cccc5F)c4)nc4ccccn34)n2)c(OC)cc1N1CCC(N2CCN(S(C)(=O)=O)CC2)CC1 [GSK1904529A]	3940 ± 230	
CN(C)C1CCN(C(=O)c2ccc(NC(=O)Nc3ccc(-c4nc(N5CCOCC5)nc(N5CCOCC5)n4)cc3)cc2)CC1 [Gedatolisib]		Proteolytic cleavage of FlipGFP (Western blot) (Norovirus 3CL^pro [2]): proteolytic cleavage was markedly reduced
CN1CCN(C2CCN(C(=O)Nc3cc(Oc4ccc(NC(=O)C5(C(=O)Nc6ccc(F)cc6)CC5)c(F)c4)ccn3)CC2)CC1 [Golvatinib]		IC50 (c-Met): 14 nM; IC50 (VEGFR2): 16 nM
O=C(c1ccc(Nc2nccc(-c3cc4ccccc4s3)n2)cc1)N1CCC(N2CCCC2)CC1 [IKK 16]	5090 ± 160	
CC(=O)N1CCC(c2cc(-c3ccc(NC(=O)c4cccn(-c5ccc(F)cc5)c4=O)cc3F)c3c(N)ncnn23)CC1 [TAM-IN-2]	1220 ± 440	
